Patent US20260372303A1, “5-Fluoro-4-Imino-3-Methyl-1-Tosyl-3, 4-Dihydropyrimidin-2(1H) -One for Fungicide-Resistant Fungus” (priority 2022, published 2026)

Key:
Assay type in all cases: in vivo
[1] = system: Zymoseptoria tritici strain Zt 19-52; experiment: In planta preventive efficacy on wheat cv. Alixan against Zymoseptoria tritici strain Zt 19-52; conditions: % of length of 2nd leaf blade, preventive 24 h
Method: (§1) A series of experiments were conducted to evaluate the efficacy of flumetylsulforim (ADF-16) for treating different strains of Zymoseptoria tritici in comparison with commercially available fungicides. Table 1 describes the Z. tritici strains used in this study and Table 2 describes the fungicides used in this study.
(§2) Winter wheat plants cv. Alixan (Limagrain) at the BBCH 12 growth stage were treated preventively with sterile distilled water (control), ADF-16, penthiopyrad, metconazole or tebuconazole at the rates described in Table 2 with a hand sprayer at 2 bars.
(§3) After treatment, wheat plants were left to dry at room temperature for 1 hour and then placed in a climatic chamber: temperature of 24 °C day/18 °C night-photoperiod of 16 h light/8 h dark and a relative humidity of 65%.
(§4) Untreated or treated whole wheat plants were inoculated 24-hours post-treatment with a calibrated pycnospore suspension of Z. tritici strains Zt StA, Zt 61, Zt 99, Zt 20, Zt 19-52, and Zt 38-02. Three replicates (pots) of 6 wheat plants each were used for each condition tested.
(§5) After inoculation, pots were transferred in a climatic chamber: temperature of 20 °C day/17 °C night—photoperiod of 16 h light/8 h dark and controlled relative humidity.
(§6) Disease assessments were carried out at 15 days post inoculation (dpi), 21 dpi and 28 dpi by measuring the length of the necrosis on the second leaf blade. The intensity of infection was then determined as a percentage of the total length of 2nd leaf blade.
(§7) The fungicide efficacies were determined from the Area Under the Disease Progress Curve (AUDPC) values and expressed as a percentage of the untreated control.
(§8) The AUDPC is a quantitative measure of disease intensity over time. The most commonly used method for estimating the AUDPC, the trapezoidal method, is performed by multiplying the average disease intensity between each pair of adjacent timepoints by the corresponding time interval and this for each time interval. The AUDPC is determined with the following formula by adding all of the trapezoids:
(§9) [formula] • yi=disease severity at the ith observation • ti=time (days) at the ith observation • N=total number of observations

[2] = system: Zymoseptoria tritici strain Zt 61; experiment: In planta preventive efficacy on wheat cv. Alixan against Zymoseptoria tritici strain Zt 61; parameters: fungicide efficacy: concentration or dose not given beside the values; conditions: for Disease Severity Intensity: % of length of 2nd leaf blade, preventive 24 h; for AUDPC: control 1194.9
Method: as §1, §2, §3, §4, §5, §6, §7, §8, §9

[3] = system: Zymoseptoria tritici strain Zt 99; experiment: In planta preventive efficacy on wheat cv. Alixan against Zymoseptoria tritici strain Zt 99; conditions: for Disease Severity Intensity: % of length of 2nd leaf blade, preventive 24 h; for AUDPC: control 1352.9
Method: as §1, §2, §3, §4, §5, §6, §7, §8, §9

[4] = system: Zymoseptoria tritici strain Zt 38-02; experiment: In planta preventive efficacy on wheat cv. Alixan against Zymoseptoria tritici strain Zt 38-02; conditions: for Disease Severity Intensity: % of length of 2nd leaf blade, preventive 24 h; for AUDPC: control 1261.4
Method: as §1, §2, §3, §4, §5, §6, §7, §8, §9

[5] = system: Zymoseptoria tritici strain Zt StA; experiment: In planta preventive efficacy on wheat cv. Alixan against Zymoseptoria tritici strain Zt StA (control strain, sensitive); conditions: for Disease Severity Intensity: % of length of 2nd leaf blade, preventive 24 h; for AUDPC: control 781.6
Method: as §1, §2, §3, §4, §5, §6, §7, §8, §9

[6] = system: Zymoseptoria tritici strain Zt 20; experiment: In planta preventive efficacy on wheat cv. Alixan against Zymoseptoria tritici strain Zt 20; conditions: % of length of 2nd leaf blade, preventive 24 h
Method: as §1, §2, §3, §4, §5, §6, §7, §8, §9

[7] = 15 dpi, rate N (g a.i./ha): ADF-16 100, penthiopyrad 200, metconazole 90, tebuconazole 250, control also no disease
[8] = 15 dpi, rate N/2.5 (g a.i./ha): ADF-16 40, penthiopyrad 80, metconazole 36, tebuconazole 100, control also no disease
[9] = rate N (g a.i./ha): ADF-16 100, penthiopyrad 200, metconazole 90, tebuconazole 250
[10] = rate N/2.5 (g a.i./ha): ADF-16 40, penthiopyrad 80, metconazole 36, tebuconazole 100

## CC(C)CC(C)c1sccc1NC(=O)c1cn(C)nc1C(F)(F)F (stereo not drawn) [Penthiopyrad]
[1]; 15 dpi, rate N (g a.i./ha): ADF-16 100, penthiopyrad 200, metconazole 90, tebuconazole 250, control 22.0
  Disease Severity Intensity: 0.0 +/− 0.0b %
[1]; 15 dpi, rate N/2.5 (g a.i./ha): ADF-16 40, penthiopyrad 80, metconazole 36, tebuconazole 100, control 22.0
  Disease Severity Intensity: 0.0 +/− 0.0b %
[1]; 21 dpi, rate N (g a.i./ha): ADF-16 100, penthiopyrad 200, metconazole 90, tebuconazole 250, control 81.7
  Disease Severity Intensity: 0.0 +/− 0.0c %
[1]; 21 dpi, rate N/2.5 (g a.i./ha): ADF-16 40, penthiopyrad 80, metconazole 36, tebuconazole 100, control 81.7
  Disease Severity Intensity: 0.0 +/− 0.0c %
[1]; 28 dpi, rate N (g a.i./ha): ADF-16 100, penthiopyrad 200, metconazole 90, tebuconazole 250, control 91.0
  Disease Severity Intensity: 0.0 +/− 0.0f %
[1]; 28 dpi, rate N/2.5 (g a.i./ha): ADF-16 40, penthiopyrad 80, metconazole 36, tebuconazole 100, control 91.0
  Disease Severity Intensity: 2.0 +/− 0.8e %
[2]; [7]
  Disease Severity Intensity: No disease
[2]; [8]
  Disease Severity Intensity: No disease
[2]; 21 dpi, rate N (g a.i./ha): ADF-16 100, penthiopyrad 200, metconazole 90, tebuconazole 250, control 63.3
  Disease Severity Intensity: 1.2 +/− 0.5d %
[2]; 21 dpi, rate N/2.5 (g a.i./ha): ADF-16 40, penthiopyrad 80, metconazole 36, tebuconazole 100, control 63.3
  Disease Severity Intensity: 19.9 +/− 3.8b %
[2]; 28 dpi, rate N (g a.i./ha): ADF-16 100, penthiopyrad 200, metconazole 90, tebuconazole 250, control 88.1
  Disease Severity Intensity: 18.2 +/− 2.8e %
[2]; 28 dpi, rate N/2.5 (g a.i./ha): ADF-16 40, penthiopyrad 80, metconazole 36, tebuconazole 100, control 88.1
  Disease Severity Intensity: 74.3 +/− 2.3b %
[2]; higher application rates (N)
  fungicide efficacy: ≥ 85%
[2]; lower application rates (N/2.5)
  fungicide efficacy: ≤ 70%
[2]; [9]
  Efficacy (from AUDPC, percentage of the untreated control): 93.3%
  AUDPC: 80.2 ± 9.8 days
[2]; [10]
  Efficacy (from AUDPC, percentage of the untreated control): 55.0%
  AUDPC: 537.9 +/− 53.2b
[3]; 15 dpi, rate N (g a.i./ha): ADF-16 100, penthiopyrad 200, metconazole 90, tebuconazole 250, control 47.9
  Disease Severity Intensity: 12.9 +/− 2.1c %
[3]; 15 dpi, rate N/2.5 (g a.i./ha): ADF-16 40, penthiopyrad 80, metconazole 36, tebuconazole 100, control 47.9
  Disease Severity Intensity: 27.5 +/− 2.2b %
[3]; 21 dpi, rate N (g a.i./ha): ADF-16 100, penthiopyrad 200, metconazole 90, tebuconazole 250, control 81.0
  Disease Severity Intensity: 70.2 +/− 2.8b %
[3]; 21 dpi, rate N/2.5 (g a.i./ha): ADF-16 40, penthiopyrad 80, metconazole 36, tebuconazole 100, control 81.0
  Disease Severity Intensity: 72.0 +/− 3.6b %
[3]; 28 dpi, rate N (g a.i./ha): ADF-16 100, penthiopyrad 200, metconazole 90, tebuconazole 250, control 92.2
  Disease Severity Intensity: 90.6 +/− 1.7ab %
[3]; 28 dpi, rate N/2.5 (g a.i./ha): ADF-16 40, penthiopyrad 80, metconazole 36, tebuconazole 100, control 92.2
  Disease Severity Intensity: 90.9 +/− 1.6ab %
[3]; [9]
  Efficacy (from AUDPC, percentage of the untreated control): 32.9%
  AUDPC: 908.4 +/− 11.3c
[3]; [10]
  Efficacy (from AUDPC, percentage of the untreated control): 20.4%
  AUDPC: 1076.9 +/− 17.9b
[4]; 15 dpi, rate N (g a.i./ha): ADF-16 100, penthiopyrad 200, metconazole 90, tebuconazole 250, control 36.0
  Disease Severity Intensity: 0.0 +/− 0.0b %
[4]; 15 dpi, rate N/2.5 (g a.i./ha): ADF-16 40, penthiopyrad 80, metconazole 36, tebuconazole 100, control 36.0
  Disease Severity Intensity: 0.0 +/− 0.0b %
[4]; 21 dpi, rate N (g a.i./ha): ADF-16 100, penthiopyrad 200, metconazole 90, tebuconazole 250, control 84.3
  Disease Severity Intensity: 10.9 +/− 2.1e %
[4]; 21 dpi, rate N/2.5 (g a.i./ha): ADF-16 40, penthiopyrad 80, metconazole 36, tebuconazole 100, control 84.3
  Disease Severity Intensity: 70.7 +/− 3.3b %
[4]; 28 dpi, rate N (g a.i./ha): ADF-16 100, penthiopyrad 200, metconazole 90, tebuconazole 250, control 95.7
  Disease Severity Intensity: 54.9 +/− 3.2d %
[4]; 28 dpi, rate N/2.5 (g a.i./ha): ADF-16 40, penthiopyrad 80, metconazole 36, tebuconazole 100, control 95.7
  Disease Severity Intensity: 86.5 +/− 2.1c %
[4]; [9]
  Efficacy (from AUDPC, percentage of the untreated control): 79.2%
  AUDPC: 262.9 ± 12.5 days
[4]; [10]
  Efficacy (from AUDPC, percentage of the untreated control): 39.5%
  AUDPC: 763.1 +/− 4.4b
[5]; [7]
  Disease Severity Intensity: No disease
[5]; [8]
  Disease Severity Intensity: No disease
[5]; 21 dpi, rate N (g a.i./ha): ADF-16 100, penthiopyrad 200, metconazole 90, tebuconazole 250, control 36.5
  Disease Severity Intensity: 0.0 +/− 0.0b %
[5]; 21 dpi, rate N/2.5 (g a.i./ha): ADF-16 40, penthiopyrad 80, metconazole 36, tebuconazole 100, control 36.5
  Disease Severity Intensity: 0.0 +/− 0.0b %
[5]; 28 dpi, rate N (g a.i./ha): ADF-16 100, penthiopyrad 200, metconazole 90, tebuconazole 250, control 77.4
  Disease Severity Intensity: 0.0 +/− 0.0b %
[5]; 28 dpi, rate N/2.5 (g a.i./ha): ADF-16 40, penthiopyrad 80, metconazole 36, tebuconazole 100, control 77.4
  Disease Severity Intensity: 0.0 +/− 0.0b %
[5]; [9]
  Efficacy (from AUDPC, percentage of the untreated control): 100%
  AUDPC: 0.0 +/− 0.0b
[5]; [10]
  Efficacy (from AUDPC, percentage of the untreated control): 100%
  AUDPC: 0.0 +/− 0.0b
[6]; [7]
  Disease Severity Intensity: No disease
[6]; [8]
  Disease Severity Intensity: No disease
[6]; 21 dpi, rate N (g a.i./ha): ADF-16 100, penthiopyrad 200, metconazole 90, tebuconazole 250, control 77.2
  Disease Severity Intensity: 0.3 +/− 0.3e %
[6]; 21 dpi, rate N/2.5 (g a.i./ha): ADF-16 40, penthiopyrad 80, metconazole 36, tebuconazole 100, control 77.2
  Disease Severity Intensity: 0.0 +/− 0.0e %
[6]; 28 dpi, rate N (g a.i./ha): ADF-16 100, penthiopyrad 200, metconazole 90, tebuconazole 250, control 95.5
  Disease Severity Intensity: 1.2 +/− 0.6g %
[6]; 28 dpi, rate N/2.5 (g a.i./ha): ADF-16 40, penthiopyrad 80, metconazole 36, tebuconazole 100, control 95.5
  Disease Severity Intensity: 2.0 +/− 1.4g %
